Experimental data from PMC10630888, “Nuclear ERK1/2 signaling potentiation enhances neuroprotection and cognition via Importinα1/KPNA2” (EMBO Molecular Medicine, 2023).
Several values for one entry are separate records, joined by “and”; a condition that tells them apart may be missing. Equal entries are not always repeated.

How the values were obtained:
[1] = tested on: p-ERK; assay: Striatal p-ERK immunohistochemistry 1 h after single injection; type: in vivo, mouse; conditions: single injection 20 mg/kg i.p., individual mice
Method: (§1) Immunohistochemistry was performed as described in Papale et al ([2016]). Briefly, 1 h after blocking in 5% normal goat serum and 0.1% Triton X‐100 solution, free‐floating sections were incubated overnight at 4°C with one of the following primary antibodies: anti‐phospho‐p44/42 MAP kinase (Thr202/Tyr204) (1:200, Cell Signaling Technology #9101), anti‐phospho–Elk‐1 (Ser383) (1:100, Cell Signaling #9181), anti‐phospho‐Kv4.2 (Thr607)‐R (1:100, Santa Cruz sc22254‐R), anti‐phospho‐MSK‐1 (1:100 Cell Signaling Technology #9595), anti‐phospho‐MEK1/2 (Ser218/222) (1:100, sc‐7995 Santa Cruz Biotechnology), c‐Fos (1:100, sc‐52 Santa Cruz Biotechnology), tyrosine Hydroxylase (monoclonal 1:1,000, Sigma Aldrich, Italy) and anti‐DARPP‐32 (H3) (1:100, Santa Cruz Biotechnology, #sc‐271111) overnight at 4°C. Sections were then incubated with biotinylated goat anti‐rabbit IgG (1:200, Vector Laboratories) or biotinylated goat anti‐mouse (1:200, Vector Laboratories) for 2 h. The classic avidin‐peroxidase complex (ABC, Vector, UK) protocol was applied, using 3,3′‐diaminobenzidine (DAB, Sigma) as a chromogen.
(§2) For in vivo immunohistochemistry experiments, images were acquired from the dorsal striatum using a Leica DM IRB microscope under a 20× objective. The number of p‐ERK, p‐MSK‐1, p‐ELK, p‐MEK‐1, p‐VG K+, c‐Fos, and DARPP‐32 positive cells was counted in 2–3 consecutive sections per mouse, bilaterally and averaged across the sections using the ImageJ software by a blind investigator to the condition. Estimation of nigral cell loss was assessed by quantifying the number of TH‐immunopositive neurons of the SNc in 360 μm‐spaced sections for each animal.

[2] = tested on: ERK phosphorylation (pERK); assay: pERK dose-response in acute striatal slices (ex vivo); type: cell-based, mouse; conditions: fresh acute striatal slices from adult mice, RB5 0.5–100 μM, 1 h at 32°C; GraphPad Prism; n = 8–12 slices per group; read-out: EC50 of pERK enhancement (ERK activation)
Method: Adult C57Bl/6 mice were decapitated after cervical dislocation and brain slices were freshly prepared as previously described in Orellana et al ([2012]) and Papale et al ([2016]). Briefly, the brains were rapidly removed from the skull, submerged in ice‐cold sucrose‐based dissecting solution, and sliced into 200 μm‐thick slices using a vibratome. […] After a rapid fixation in 4% PFA, slices were rinsed and cryoprotected overnight at 4°C in 30% sucrose solution. On the following day, slices were cut into 18 μm‐thick slices using a cryostat (Leica CM1850), mounted onto SuperFrost Plus slides (Thermo Scientific) and stored at −20°C until processing for immunohistochemistry or immunofluorescence.
(§3) Immunohistochemistry was performed as described in Papale et al ([2016]). […]
For ex‐vivo immunohistochemistry experiments, images were acquired from the dorsal striatum using a bright‐field microscope (Macro/Micro Imaging System, Leica) under a 40× magnification. Neuronal quantification was performed with ImageJ software by counting the number of phospho‐ERK positive cells in two sections for each sample in three fields per section. […] The EC50 for pERK was calculated using GraphPad Prism software.

[3] = tested on: p-ERK in dorsal striatum; assay: In vivo dose response of striatal pERK; parameters: species or system mouse; conditions: 1 h after administration, individual mice
Method: For the dose response study, 2‐month‐old CD1 male mice were injected with different doses of RB5 (1, 2.5, 5, 10, and 20 mg/kg, i.p.), whereas the control group was injected with 20 mg/kg (i.p.) of SCR peptide. Mice were perfused 1 h later with 4% PFA. For the time course study, mice were injected i.p. with 20 mg/kg of RB5 and perfused at different time points with 4% PFA (1, 3, 6, and 12 h). The control group was injected i.p. with 20 mg/kg of SCR. Brains were postfixed in 4% PFA for 24 h and cryoprotected overnight in sucrose 30% before immunohistochemistry against phospho‐ERK1/2.
as §3, §2

[4] = tested on: pERK in CA1; assay: pERK in hippocampal CA1 of Tg2576 mice; type: in vivo, mouse; conditions: for pERK in hippocampal CA1 (Fig 5 panel j): individual animals
Method: as §1
Tg2576 mice were administered with RB5 or Scramble (20 mg/kg i.p.) for either 7 days, for IHC analysis, or with a single injection (20 mg/kg i.p.), for behavioral analysis.

[5] = tested on: cleaved caspase-3; assay: Cleaved caspase-3 in dentate gyrus of Tg2576 mice; type: in vivo, mouse; conditions: for cleaved caspase-3 in dentate gyrus (Fig 5 panel l): individual animals
[6] = tested on: pAcH3; assay: Striatal pAcH3 immunofluorescence 1 h after single injection; type: in vivo, mouse; conditions: single injection 20 mg/kg i.p., individual mice
Method: Immunofluorescence was performed as described in Papale et al ([2016]). Briefly, 1 h after blocking in 5% normal goat serum, slices were incubated overnight at 4°C with the following primary antibodies: anti‐phospho (Ser10)‐acetylated (Lys14) histone H3 (1:1,000, Millipore), anti‐phospho‐S6 ribosomal protein (Ser235/236) (1:200, Cell Signaling Technology) anti‐phospho‐S6 ribosomal protein (Ser240/244) (1:200, Cell Signaling), cleaved caspase‐3 (1:200, Cell Signaling Technology), anti‐mutant Huntingtin (1:100, Developmental Studies Hybridoma Bank, University of Iowa, #MW8), and NeuN (1:1,000, Millipore). Corresponding secondary antibodies (Alexa Fluor 546 conjugated anti‐mouse (1:200, Thermo Fisher Scientific), Alexa Fluor 488 conjugated anti‐rabbit (1:500, Thermo Fisher Scientific) and Pacific Blue goat anti‐mouse (1:200, Thermo Fisher Scientific) were incubated at room temperature for 1 h. Sections stained for mutant Huntingtin were incubated with DAPI for 20 min. Sections were subsequently mounted with fluorescent mounting medium (DAKO). Single and double‐labeled images ([…]) were obtained at 40× magnification from the striatum using a laser scanning confocal microscope (Leica SP2) equipped with the corresponding lasers and appropriate filter sets to avoid the crosstalk between the fluorochromes.
In ex‐vivo and in‐vivo immunofluorescence experiments, the number of p‐S6 or p‐AcH3 immunoreactive neurons among NeuN‐positive neurons was counted in 2–3 consecutive striatal sections per mouse in four fields per section. Caspase 3‐positive cells were quantified among NeuN‐positive neurons in each slide and expressed as percentage (ratio between caspase‐3‐positive cells and total NeuN‐positive neurons) for each field acquired through the slide. The number of cells showing mutant Huntingtin inclusions were expressed as a percentage of mutant Huntingtin‐positive cells among DAPI‐positive cells.

[7] = tested on: SC-CA1 synapses, CA1 pyramidal neurons; assay: Whole-cell patch clamp, EPSCs at SC-CA1 synapses in hippocampal slices; type: cell-based, rat; conditions: peptide 50 μM in intracellular solution, 30–35 min, mean, RB5 n = 12 cells, Scr n = 8 cells, 4 animals
[8] = Tg2576 mice, 7 months old, 20 mg/kg i.p. for 7 days

Substance | p-ERK positive cells in striatum ([1]; ERK1+/+ (WT) mice) | p-ERK positive cells in striatum ([1]; ERK1-/- mice) | p-ERK positive cells in striatum ([1]; 1 h) | EC50 [2] | p-ERK-positive cells in dorsal striatum ([3]; 10 mg/kg i.p.) | p-ERK-positive cells in dorsal striatum ([3]; 20 mg/kg i.p.) | ERK phosphorylation in hippocampal CA1 [4, 8] | pERK in hippocampal CA1 (Fig 5 panel j) ([4]; Tg2576 mice) | pERK in hippocampal CA1 (Fig 5 panel j) ([4]; WT mice) | Preapoptotic phenotype measured by caspase-3 [5, 8] | cleaved caspase-3 in dentate gyrus (Fig 5 panel l) ([5]; Tg2576 mice) | cleaved caspase-3 in dentate gyrus (Fig 5 panel l) ([5]; WT mice) | pAcH3 positive neurons in striatum ([6]; ERK1+/+ (WT) mice) | pAcH3 positive neurons in striatum ([6]; ERK1-/- mice) | pAcH3 positive neurons in striatum ([6]; 1 h) | Average EPSC amplitude over last 5 min of recording, normalized to first minute [7] | Average EPSC amplitude over last 5 min of recording, normalized to first minute ([7]; listed as Scr)
GRKKRRQRRRPPQGGGGGEPRRTEGVGPGVPGEVEMVKGQPFDV [RB5, six D-amino acids, acetylated N-terminus] | enhanced pERK and pAcH3 in WT | not in ERK1 KO mice | greatly enhanced striatal ERK phosphorylation | 3.4 µM | significant striatal ERK activation | significant striatal ERK activation | restored ERK phosphorylation | 12.58 and 9.08 and 13.47 and 9.49 and 10.2 and 10.95 and 9.29 and 11.78 | 8.46 and 10.53 and 9.48 and 11.97 and 13.27 and 10.48 and 8.7 | significantly reduced the preapoptotic phenotype | 0.77 and 0.91 and 0.62 and 1.34 and 0.79 and 1.19 and 1.3 | 0.76 and 0.9 and 0.39 and 0.92 and 0.68 and 0.62 and 0.56 and 0.58 and 0.59 | enhanced pERK and pAcH3 in WT | not in ERK1 KO mice | selectively activated | – | –
SCR: ineffective Scramble version of RB5 containing a TAT sequence (GRKKRRQRRRPPRVGPGVPEGVGVAVFGVKEPGQTGDVGPVGE) [reference compound] | – | – | – | – | – | – | – | – | – | – | – | – | – | – | – | had no effect | 0.9389
